Data reported in patent publication US20230295162A1 (EÖTVÖS LORÁND TUDOMÁNYEGYETEM, priority 2020, published 2023).

Legend:
[1] = test system: EBC-1 lung cancer cell line; test: High-throughput screening, CellTiter-Glo cell viability assay at 100 nM; format: cell-based, human; conditions: Homo sapiens, EBC-1, HTS, compounds at 100 nM, 72 h, read-out: cytotoxicity expressed in IC50, EBC-1 (results of High throughput screening)
[2] = test system: H2228 lung cancer cell line; test: as above; format: cell-based, human; conditions: Homo sapiens, NCI-H2228, HTS, compounds at 100 nM, 72 h, read-out: cytotoxicity expressed in IC50, H2228 (results of High throughput screening)
[3] = test system: COLO-205 (human colorectal adenocarcinoma) cells; test: Colorimetric alamarBlue assay, long treatment; conditions: COLO 205, 72 h, read-out: cytotoxicity expressed in IC50, COLO-205
[4] = test system: U-87 (human primary glioblastoma) cells; test: Short term cytotoxicity, MTT assay; format: cell-based; conditions: 1 h treatment then 72 h culture, read-out: cytotoxicity expressed in IC50, U-87
Procedure: (§1) For the short term cytotoxicity studies the A-431 (human squamous carcinoma) and U-87 (human primary glioblastoma) cells were cultured in RPMI-1640 medium supplemented with 10% FCS (fetal calf serum, Sigma Ltd.), 2 mM L-glutamine, and […] gentamicin. Cell cultures were maintained at 37° C. in a humidified atmosphere with 5% CO2. The cells were grown to confluency and were distributed into 96-well plate with initial cell number of 5.0×10^3 per well. After 24 h incubation at 37° C., the cells were treated with the compounds in 200 μL final volume containing 1.0 v/v % DMSO. The cells were incubated with the compounds at 10^−4-10^2 μM concentration range for 1 h. Control cells were treated with serum free medium (RPMI-1640) only or with DMSO (c=1.0 v/v %) at 37° C. for 1 h. After incubation the cells were washed twice with serum free (RPMI-1640) medium. To determine the in vitro cytostatic effect, the cells were cultured for a further 72 h in 10% serum containing medium. MTT-solution ([…], 2 mg/mL, final concentration: 0.37 mg/mL) was added to each well. The respiratory chain [26, 27] and other electron transport systems reduce MTT and thereby form non-water-soluble violet formazane crystals within the cell. […] After 4 h of incubation the cells were centrifuged for 5 min (900 g) and the supernatant was removed. The obtained formazane crystals were dissolved in DMSO ([…]) and optical density (OD) of the samples was measured at λ=540 and 620 nm, respectively, using ELISA Reader (iEMS Reader, Labsystems, Finland). OD620 values were subtracted from OD540 values. The percent of cytostasis was calculated by using the following equation: Cytostatic effect (%)=[1−(ODtreated/ODcontrol)]×100 Values ODtreated and ODcontrol correspond to the optical densities of the treated and the control cells, respectively. In each case two independent experiments were carried out with 4 parallel measurements. […] The curves were defined using Microcal™ Origin1 (version 7.5) software: cytostasis was plotted as a function of concentration, fitted to a sigmoidal curve, and based on this curve, the half maximal inhibitory concentration (IC50) value was determined.

[5] = test system: A-431 (human squamous carcinoma) cells; test: Short term cytotoxicity, MTT assay; format: cell-based; conditions: 1 h treatment then 72 h culture, read-out: cytotoxicity expressed in IC50, A-431
Procedure: as §1

[6] = test system: PANC-1 (human pancreatic carcinoma) cells; test: Impedance-based viability assay (xCELLigence SP), long treatment; format: cell-based; conditions: 72 h, read-out: cytotoxicity expressed in IC50, PANC-1
Description: (Gibco®/Invitrogen Corporation, New York, NY, USA).
Data obtained from each experiment represent mathematical averages.

[7] = test system: A2058 (human metastatic melanoma) cells; test: Colorimetric alamarBlue assay, long treatment; conditions: Homo sapiens, A2058, 72 h, read-out: cytotoxicity expressed in IC50, A-2058
Detroit 562 cell line = test: Additional in vitro IC50 tests (Table 3); format: cell-based; conditions: Homo sapiens
Procedure: (§2) Cell lines were maintained according to the instructions provided by ATCC (https://www.lgcstandards-atcc.org/) in a 5% CO2 humidified incubator maintained at 37° C. temperature. Effects of compounds on cell viability were measured via CellTiter-Glo® luminescent cell viability assay (Promega, Madison, WI, USA) Cells were plated at 1000 cells/well onto a flat-bottomed, white 96 well plate (BRANDplates, cat. no.: 781965). […] After the treatment, medium was removed and CellTiter-Glo® reagent was added. The luminescence signal was recorded using a microplate reader (BioTek Synergy 2 Multi-Mode Reader, BioTek, Winooski, VT, USA).
(§3) Cell viability data (% of untreated control cells) was evaluated with Microsoft Excel. Dose-response curves (using a non-linear regression model, log (inhibitor) vs response, variable slope) were generated and IC50 values were determined using Graph Pad Prism 5.02 software (GraphPad Software, San Diego, CA, USA).

Fadu cell line = test: Additional in vitro IC50 tests (Table 3); format: cell-based; conditions: Homo sapiens
Procedure: as §2, §3

EBC-1 cell line = test: Additional in vitro IC50 tests (Table 3); format: cell-based; conditions: Homo sapiens
Procedure: as §2, §3

H2228 cell line = test: Additional in vitro IC50 tests (Table 3); format: cell-based; conditions: Homo sapiens, NCI-H2228
Procedure: as §2, §3

SCC-25 cell line = test: Additional in vitro IC50 tests (Table 3); format: cell-based; conditions: Homo sapiens
Procedure: as §2, §3

[8] = test system: Panc1 pancreatic cancer cell line; test: CellTiter-Glo IC50 (Example 19); format: cell-based; conditions: Homo sapiens, PANC-1, 72 h
Procedure: Some representative imipridones and ONC212 as reference were further tested on the following human malignant cell lines: PC3 and LNCap (prostate carcinoma); BxPC3, MiaPaCa2 and Panc1 (pancreatic cancer); A549, HCC827, H1993 and H520 (lung carcinoma); MDA-MB-453 and MDA-MB-231 (breast cancer) (see Table 2 and FIGS. 1-11).
as §2, §3

Row | melting point [°C] | IC50 (Detroit 562 cell line) [µM] | IC50 (Fadu cell line) [µM] | IC50 (EBC-1 cell line) [µM] | IC50 (H2228 cell line) [µM] | IC50 (SCC-25 cell line) [µM] | IC50 [8] [µM] | SMILES | IC50 [1] [µM] | IC50 [2] [µM] | IC50 [3] [µM] | IC50 [4] [µM] | IC50 [5] [µM] | IC50 [6] [µM] | IC50 [7] [µM]
1 |  |  |  |  |  |  |  | NCc1cccc(CN2C(=O)C3=C(CCN(Cc4cccc(F)c4)C3)N3CCN=C23)c1 [I/60] | > 0.1 | > 0.1 | > 10 | 0.416 | < 0.2 | 0.43 | > 10
2 |  |  |  |  |  |  |  | O=C1C2=C(CCN(Cc3ccc(C(F)(F)F)cc3)C2)N2CCN=C2N1Cc1ccc(C(F)(F)F)c(F)c1 [I/27] | > 0.1 | > 0.1 | 25 | 5.99 | 8.95 | 25 | 12.8
3 | 86 | 0.005 | 0.012 | 0.013 | 0.012 | 0.019 | 0.01 | O=C1C2=C(CCN(Cc3cc(F)cc(F)c3)C2)N2CCN=C2N1C(CO)c1ccc(Cl)cc1 (racemic) [I/128] |  |  |  |  |  |  | 
4 | 114.5 | 0.103 | 0.29 | 0.288 | 0.269 | > 0.3 |  | Nc1cccc(CN2C(=O)C3=C(CCN(Cc4cc(F)cc(F)c4)C3)N3CCN=C23)c1 [I/126, 4-(3-Aminobenzyl)-7-(3,5-difluorobenzyl)-2,4,6,7,8,9-hexahydroimidazo[1,2-a]pyrido[3,4-e]pyrimidin-5(1H)-one] |  |  |  |  |  |  | 
5 |  |  |  |  |  |  |  | O=C1C2=C(CCN(Cc3ccccc3F)C2)N2CCN=C2N1Cc1ccc(C(F)(F)F)c(F)c1 [I/26] | > 0.1 | > 0.1 | > 10 | 3.51 | 3.63 | 0.92 | > 10
6 |  |  |  |  |  |  |  | O=C1C2=C(CCN(Cc3cccc(F)c3)C2)N2CCN=C2N1Cc1ccc(I)cc1 [I/46] | < 0.1 | ~0.1 |  | 25 | 6.16 | 0.025 | > 10
7 |  |  |  |  |  |  |  | O=C1C2=C(CCN(Cc3ccccc3)C2)N2CCN=C2N1Cc1cc(F)c(F)c(F)c1 [I/9] |  |  | > 10 | 6.02 | 1.39 | 2.22 | > 10
8 | 76 |  |  |  |  |  | 0.015 | O=C1C2=C(CCN(Cc3cc(F)cc(F)c3)C2)N2CCN=C2N1[C@@H](CO)c1ccc(F)cc1 [I/129 (R)] |  |  |  |  |  |  | 
9 |  |  |  |  |  |  |  | O=C1C2=C(CCN(Cc3ccccc3)C2)N2CCN=C2N1Cc1ccc(F)cc1 [I/5] | > 0.1 | > 0.1 | 0.247 | > 25 | 3.55 | 0.25 | 0.25
10 | 158 | 0.01 | 0.016 | 0.016 | 0.015 | 0.021 |  | [N-]=[N+]=Nc1cccc(CN2C(=O)C3=C(CCN(Cc4cc(F)cc(F)c4)C3)N3CCN=C23)c1 [I/127, 4-(3-Azidobenzyl)-7-(3,5-difluorobenzyl)-2,4,6,7,8,9-hexahydroimidazo[1,2-a]pyrido[3,4-e]pyrimidin-5(1H)-one] |  |  |  |  |  |  | 
11 |  |  |  |  |  |  |  | O=C1C2=C(CCN(Cc3cccc(F)c3)C2)N2CCN=C2N1Cc1ccc(C(F)(F)F)c(F)c1 [I/31] | < 0.1 | < 0.1 |  | > 25 | < 0.2 | 0.0767 | 
12 |  | 0.12 | 0.15 | > 0.3 | 0.3 | > 0.3 | 0.265 | O=C1C2=C(CCN(Cc3cc(F)cc(F)c3)C2)N2CCN=C2N1[C@H](CO)c1ccc(F)cc1 [I/129 (S)] |  |  |  |  |  |  | 
13 | 129.5 | 0.084 | 0.022 | 0.029 | 0.104 | 0.089 | 0.3 | NCc1cccc(CN2C(=O)C3=C(CCN(Cc4cc(F)cc(F)c4)C3)N3CCN=C23)c1 [I/61, 4-(3-(Aminomethyl)benzyl)-7-(3,5-difluorobenzyl)-2,4,6,7,8,9-hexahydroimidazo[1,2-a]pyrido[3,4-e]pyrimidin-5(1H)-one] |  |  |  |  |  |  | 
14 |  |  |  |  |  |  |  | O=C1C2=C(CCN(Cc3ccccc3)C2)N2CCN=C2N1Cc1cccc(F)c1 [I/8] | > 0.1 | > 0.1 | 4.96 | > 25 | 7.29 | 1.42 | 1.73
15 | 204.8 |  |  |  |  |  |  | O=C1C2=C(CCN(Cc3cc(F)cc(F)c3)C2)N2CCN=C2N1Cc1cccc(Cl)c1 [I/125, 4-(3-Chlorobenzyl)-7-(3,5-difluorobenzyl)-2,4,6,7,8,9-hexahydroimidazo[1,2-a]pyrido[3,4-e]pyrimidin-5(1H)-one] |  |  |  |  |  |  | 
16 |  |  |  |  |  |  |  | O=C1C2=C(CCN(Cc3ccc(F)cc3)C2)N2CCN=C2N1Cc1ccc(C(F)(F)F)c(F)c1 [I/28] | > 0.1 | > 0.1 | 3.27 | 17.6 | 2.66 | 0.96 | > 10
